In series [1] the test system is patients suffering from advanced Parkinson's disease with severe levodopa-induced dyskinesias.
Experimental: The patients were given optimal anti-parkinsonian drug treatment during the three months prior to the clinical trial. Duration of study was six weeks. First two weeks served to accumulate baseline data. Patients filled up dyskinesias diaries in which they marked at every waking hour whether involuntary movements were present and their severity (mild/moderate and severe). […] The dose was then increased to 25 mg, b.i.d. for additional four days (once in the morning and once in the early afternoon). The dose as then further increased to two 50 mg tablets (total of 100 mg. daily) which the patients took for three additional weeks. They continued to fill up their dyskinesias diaries throughout the trial period.
Series [2] concerns baboons. The conditions noted are these: induced by 3-nitropropionic acid, Palfi et al. 1997; cited from earlier work.

For `Nc1nc2ccc(OC(F)(F)F)cc2s1` [Riluzole, 2-amino-6-trifluoromethoxy benzothiazole], in series [1] (riluzole up to 50 mg b.i.d.), the Adverse effects result is given as “no report of adverse-effects” and the Tolerability entry is recorded as “well-tolerated”. In series [1] (when patients took riluzole), the “Efficacy of levodopa and other anti-parkinsonian drugs and total daily time spent in "on" periods” value is on record as “no decrease”; the “Worsening of the parkinsonian signs and symptoms” value was “no worsening”. The Abnormal motor movement result in series [2] is “reduces various abnormal motor movement”.

The values are drawn from US6417210B1 (MOR-Research Applications Ltd., priority 1998, dated 2002).
